Test systems include SW-620 colon; BT-549 breast; HL-60(TB) leukemia; COLO 205 colon; RXF 393 renal; OVCAR-3 ovarian; SK-MEL-5 melanoma; M14 melanoma; TK-10 renal; SK-MEL-2 melanoma.
What all share (experiment): growth of human tumour cells (NCI), 48 h

In PubChem BioAssay (NCI) one finds TGI data, which are given here for 18 compounds.

The structures appear in SMILES notation.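 96-well plates; 48 h exposure; 5 concentrations. Endpoints by linear interpolation between flanking doses. Not reached: highest tested concentration assigned. The concentration for full growth arrest is given as TGI.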

For the compound `O=[N+]([O-])c1ccc(O)c(/C=N/NC(=S)N2CCCCC2)c1`, the TGI is more than 59 µM in the test with SW-620 colon; 63.4 µM in the test on BT-549 breast; more than 42.1 µM with HL-60(TB) leukemia; more than 37.9 µM with COLO 205 colon; more than 100 µM with RXF 393 renal; more than 100 µM in the test on OVCAR-3 ovarian. In addition, the TGI with SK-MEL-5 melanoma was 21 µM; in the test with M14 melanoma, more than 100 µM; in the test on TK-10 renal it was 44 µM; in the test with SK-MEL-2 melanoma, 50.4 µM.

As for `COc1cc(-c2ccccc2N)c2cccnc2c1OC`, the TGI with SW-620 colon came out at 17.4 µM; in the test on BT-549 breast, 22.2 µM; in the test with HL-60(TB) leukemia, 16.5 µM; with COLO 205 colon it was 22.1 µM; with RXF 393 renal it was 34.6 µM; with OVCAR-3 ovarian, 16.1 µM. In addition, the TGI is 26.3 µM with SK-MEL-5 melanoma, 19.3 µM in the test on M14 melanoma, 23.7 µM with TK-10 renal and 26.5 µM in the test with SK-MEL-2 melanoma.

Take `COc1ccc(C(C2=C(O)COC2=O)c2cc3c(cc2O)OCO3)cc1OC` (stereo not given): the TGI in the test on SW-620 colon, in the test with BT-549 breast, in the test with HL-60(TB) leukemia, in the test on COLO 205 colon, in the test on RXF 393 renal and in the test with OVCAR-3 ovarian was more than 100 µM throughout. Also, the TGI in the test with SK-MEL-5 melanoma, in the test on M14 melanoma, with TK-10 renal and with SK-MEL-2 melanoma was more than 100 µM in each case.

Take `CCn1c(SCC(=O)NNC(=S)NC)nc2ccccc2c1=O`: the TGI in the test on SW-620 colon, with BT-549 breast, with HL-60(TB) leukemia, in the test on COLO 205 colon, in the test on RXF 393 renal and in the test with OVCAR-3 ovarian was more than 100 µM in each case. Moreover, the TGI in the test with SK-MEL-5 melanoma, in the test on M14 melanoma, in the test with TK-10 renal and with SK-MEL-2 melanoma was more than 100 µM in each case.

In the case of `CCc1nc2ccc(NCCN(C)C)c3c(=O)c4ccccc4n1c23`, the TGI was found to be 4.99 µM with SW-620 colon; 21.2 µM in the test on BT-549 breast; 8.68 µM in the test on HL-60(TB) leukemia; 3.44 µM with COLO 205 colon; 6.03 µM in the test on RXF 393 renal; 4.45 µM in the test on OVCAR-3 ovarian. For the same compound, the TGI worked out at 2.32 µM in the test on SK-MEL-5 melanoma, 4.68 µM with M14 melanoma, 12.2 µM in the test with TK-10 renal and 6.98 µM in the test with SK-MEL-2 melanoma.

In the case of `C/C1=C\C=C(\C(C)C)CC/C(C(=O)O)=C\CC/C(C)=C/CC1`, the TGI was more than 100 µM in the test on SW-620 colon; 79.9 µM in the test with BT-549 breast; 56.8 µM in the test with HL-60(TB) leukemia; 50.6 µM with COLO 205 colon; 41.4 µM in the test with RXF 393 renal; 31.4 µM in the test on OVCAR-3 ovarian. Besides, the TGI with SK-MEL-5 melanoma was 34.7 µM; in the test on M14 melanoma it was 63.6 µM; in the test on TK-10 renal it was more than 100 µM; in the test with SK-MEL-2 melanoma, 32.8 µM.

On to `O=C1c2cn[nH]c2C(c2ccccc2)N1c1ccccc1` (stereo not given), for which the TGI with SW-620 colon, with BT-549 breast, in the test on HL-60(TB) leukemia, in the test on COLO 205 colon, with RXF 393 renal and in the test with OVCAR-3 ovarian was more than 10 µM each time. Further, the TGI in the test with SK-MEL-5 melanoma, in the test on M14 melanoma, in the test with TK-10 renal and in the test on SK-MEL-2 melanoma was more than 10 µM each time.

As for `COc1cc(C2c3cc4c(cc3OC(N3CCNCC3)C2C)OCO4)cc(OC)c1OC` (stereo not given), the TGI was found to be 17.3 µM in the test on SW-620 colon; 30.2 µM in the test on BT-549 breast; 0.929 µM in the test with HL-60(TB) leukemia; 2 µM in the test on COLO 205 colon; 0.99 µM in the test with RXF 393 renal; 0.512 µM in the test on OVCAR-3 ovarian. Besides, the TGI with SK-MEL-5 melanoma was 4.03 µM; in the test with M14 melanoma, 20 µM; with TK-10 renal, more than 100 µM; in the test with SK-MEL-2 melanoma, more than 40.6 µM.

With `COc1ccccc1C[C@@H]1OC2(C=CC(=O)C=C2)O[C@H]1Cc1ccccc1OC`, the TGI with SW-620 colon stood at 5.98 µM; with BT-549 breast it was 11.5 µM; with HL-60(TB) leukemia, 29.8 µM; in the test with COLO 205 colon it was 14.9 µM; in the test on RXF 393 renal, 3.81 µM; in the test with OVCAR-3 ovarian, 18.9 µM. Besides, the TGI in the test with SK-MEL-5 melanoma worked out at 16.1 µM; with M14 melanoma, 17.5 µM; with TK-10 renal, 27.4 µM; in the test on SK-MEL-2 melanoma it was 18.4 µM.

For the compound `Cc1ccc2c(c1)C(=O)C(C1OC(=O)c3ccccc31)C2` (stereo not given), the TGI with SW-620 colon, in the test on BT-549 breast, with HL-60(TB) leukemia, with COLO 205 colon, in the test with RXF 393 renal and with OVCAR-3 ovarian was more than 100 µM throughout. In addition, the TGI in the test with SK-MEL-5 melanoma, with M14 melanoma, in the test with TK-10 renal and in the test with SK-MEL-2 melanoma was more than 100 µM in each case.

Take `O=C(CCc1ccccc1)On1c(-c2ccccc2)nc2ccccc2c1=S`: the TGI with SW-620 colon is more than 100 µM; in the test on BT-549 breast it was more than 100 µM; in the test with HL-60(TB) leukemia, more than 100 µM; in the test with COLO 205 colon it was more than 100 µM; with RXF 393 renal, 57.3 µM; in the test on OVCAR-3 ovarian, more than 100 µM. For the same compound, the TGI in the test on SK-MEL-5 melanoma is 47.2 µM; with M14 melanoma it was 44.7 µM; in the test with TK-10 renal, more than 100 µM; in the test on SK-MEL-2 melanoma, 37.5 µM.

With `COc1cc2nc(-c3cccs3)[nH]c(=O)c2cc1OC`, the TGI with SW-620 colon, with BT-549 breast, with HL-60(TB) leukemia, in the test with COLO 205 colon, in the test with RXF 393 renal and in the test with OVCAR-3 ovarian was more than 100 µM in each case. In addition, the TGI in the test on SK-MEL-5 melanoma, with M14 melanoma, in the test with TK-10 renal and in the test on SK-MEL-2 melanoma was more than 100 µM throughout.

`CSc1c(C(=O)Nc2ccc(Cl)cc2)c(N)n(N)c(=O)c1C#N`: the TGI with SW-620 colon, in the test on BT-549 breast, in the test with HL-60(TB) leukemia, in the test on COLO 205 colon, with RXF 393 renal and with OVCAR-3 ovarian was more than 100 µM throughout. Moreover, the TGI in the test with SK-MEL-5 melanoma, with M14 melanoma, with TK-10 renal and in the test on SK-MEL-2 melanoma was more than 100 µM in each case.

As to `O=C(Nc1ccccc1)c1cc(S(=O)(=O)N2CCNNC2=O)c(S)cc1Cl`, the TGI was more than 100 µM in the test on SW-620 colon; more than 100 µM in the test on BT-549 breast; more than 100 µM with HL-60(TB) leukemia; more than 100 µM in the test with COLO 205 colon; 74.4 µM in the test with RXF 393 renal; more than 100 µM in the test with OVCAR-3 ovarian. Moreover, the TGI with SK-MEL-5 melanoma, with M14 melanoma, in the test on TK-10 renal and in the test with SK-MEL-2 melanoma was more than 100 µM throughout.

Consider `CNc1ncc(-c2nnnn2-c2ccccc2)c(CN(C)C)n1`, for which the TGI in the test with SW-620 colon, in the test on BT-549 breast, in the test on HL-60(TB) leukemia, with COLO 205 colon, in the test on RXF 393 renal and in the test with OVCAR-3 ovarian was more than 100 µM each time. For the same compound, the TGI in the test with SK-MEL-5 melanoma, in the test with M14 melanoma, in the test on TK-10 renal and with SK-MEL-2 melanoma was more than 100 µM each time.

For `CC1CC(=O)N(N(C)C)C(C#N)(C#N)C1(C#N)C#N` (stereo not given), the TGI in the test with SW-620 colon was determined as 21.1 µM; with BT-549 breast, 32.7 µM; with HL-60(TB) leukemia it was 4.83 µM; with COLO 205 colon, 7.99 µM; with RXF 393 renal it was 26.6 µM; with OVCAR-3 ovarian, 44.6 µM. The TGI with SK-MEL-5 melanoma came to 47 µM; in the test on M14 melanoma, 42.9 µM; with TK-10 renal, 30.3 µM; with SK-MEL-2 melanoma it was 59.3 µM.

Turning to `c1cnc(N2CCN(Cc3c[nH]c4ccccc34)CC2)nc1`, the TGI is more than 100 µM in the test on SW-620 colon; more than 100 µM with BT-549 breast; more than 100 µM with HL-60(TB) leukemia; 67.6 µM in the test with COLO 205 colon; more than 100 µM with RXF 393 renal; more than 100 µM in the test on OVCAR-3 ovarian. The TGI with SK-MEL-5 melanoma is more than 100 µM; in the test with M14 melanoma it was more than 100 µM; in the test with TK-10 renal, more than 100 µM; in the test with SK-MEL-2 melanoma it was 31.4 µM.

`C[C@@H]1S[C@H](c2c(Cl)cccc2Cl)N2Cc3ccccc3N=C12`: the TGI in the test with SW-620 colon, in the test with BT-549 breast, in the test on HL-60(TB) leukemia, in the test on COLO 205 colon, with RXF 393 renal and in the test on OVCAR-3 ovarian was more than 100 µM in each case. Besides, the TGI with SK-MEL-5 melanoma, in the test with M14 melanoma, in the test on TK-10 renal and with SK-MEL-2 melanoma was more than 100 µM throughout.
